Measured values from patent US4874773A, “3-Aminocarbonyl-1,4-dihydropyridine-5-carboxylic acid compounds, and pharmaceutical composition containing the same” (priority 1985, dated 1989).
Entries after “also recorded” stand apart in the source; their conditions may differ. Where two headings read alike, the source gives them in different places. Blank lines part the entries; values can stand above or below the molecule they belong to.

Key:
isolated aorta = test: Experiment 3 Relaxing activity on the isolated aorta (30 mM KCl contracted); set-up: species or system Japanese white rabbit; details: for EC50: Oryctolagus cuniculus, read-out: EC50 (concentration for 50% relaxation); for relaxing / vasodilating activity on isolated aorta (in words): Table 8, comparison with nifedipine and nicardipine hydrochloride, etc. where stated
[1] = tested on: Spontaneously hypertensive male rats; test: Experiment 1-1 Hypotensive activity (oral, conscious spontaneously hypertensive rats); type: in vivo, rat; details: for Maximum hypotension: mean blood pressure; for hypotensive activity (in words): Table 4, comparison with nifedipine and nicardipine hydrochloride where stated
isolated heart [2] = test: Experiment 2-2 Activity onto the isolated heart (with duration); set-up: species or system Japanese white rabbit; details: for Coronary perfusion Duration: time until perfusion volume returned to initial level; for activation at 3 µg/heart / inhibition at 3 µg/heart / activation at 1 µg/heart / inhibition at 1 µg/heart: Oryctolagus cuniculus; for activation at 3 µg/heart / activation at 1 µg/heart: read-out: Coronary perfusion Increase
Description: Japanese white rabbit (weighing 2.2-2.5 kg) was anesthetized by introvenous injection of nembutal (20 mg/kg) and then sacrificed by bleeding from common carotid artery. […] There were measured the perfusion volume with a drop-counting meter (ET-600G type, manufactured by Nippon Koden K.K.) and the heart pulse and the contractility via a force-displacement transducer (FD pick up, SB-IT type, manufactured by Nippon Koden K.K.) (for measuring heart pulse, an instant pulse meter (AT-601G type, minufactured by Nippon Koden K.K.) being further used).
The test compounds were dissolved in ethanol, and the solution was diluted in 100-fold with purified water, and the diluted solution was administered in an amount of 0.1 ml/heart (i.e. 3 μg/heart).
The activity was measured in the same manner as described in Experiment 2-1 except that in some test compounds, the dose was in 1 μg/heart. Besides, the duration of the activity was evaluated by counting the time until the coronary perfusion volume became to the initial level before the administration of the test compound.

isolated heart [3] = test: Experiment 2-1 Activity on isolated heart; set-up: species or system Japanese white rabbit; details: for activation at 3 µg/heart / inhibition at 3 µg/heart, 3 µg/heart / inhibition at 3 µg/heart: Oryctolagus cuniculus, 3 μg/heart; for activation at 3 µg/heart: read-out: Increase of coronary perfusion; for inhibition at 3 µg/heart, 3 µg/heart: read-out: Inhibitory rate of systole; for inhibition at 3 µg/heart: read-out: Reducing rate of heart pulse
Description: Japanese white rabbit (weighing 2.2-2.5 kg) was anesthetized by introvenous injection of nembutal (20 mg/kg) and then sacrificed by bleeding from common carotid artery. […] After stabilizing the heart preparation for 90 minutes, the test compound was administered. There were measured the perfusion volume with a drop-counting meter (ET-600G type, manufactured by Nippon Koden K.K.) and the heart pulse and the contractility via a force-displacement transducer (FD pick up, SB-IT type, manufactured by Nippon Koden K.K.) (for measuring heart pulse, an instant pulse meter (AT-601G type, minufactured by Nippon Koden K.K.) being further used).

[4] = tested on: Spontaneously hypertensive male rats; test: Experiment 1-2 Hypotensive activity (oral, 8 hours); type: in vivo, rat; details: for hypotensive activity (in words): Table 5, comparison with nifedipine and nicardipine hydrochloride where stated
Description: Spontaneously hypertensive male rats (13-15 week age, one group: 3 rats) were used. […] The rats were fixed in a Howlman cage without fasting, and the femoral arterial pressure was measured by a direct method without anesthesia with a cannula which was previously inserted into the femoral artery of the animal, via a pressure transducer (MPU-0.5, manufactured by Nippon Koden K.K.). The test compounds were orally administered in the form of a suspension in 0.5% methyl cellulose solution in a dose of 10 mg/kg (in some compounds, 3 mg/kg). In the control group, only 0.5% methyl cellulose solution was administered likewise. The blood pressure was measured for 5 hours after the administration of test compounds.
The hypotensive activity was measured in the same manner as described in Experiment 1-1 except that the rats were used in 3-5 rats per each group, and the test compounds were administered in a dose of 1 mg/kg (some compounds, 3 mg/kg), and the blood pressure was measured for 8 hours after the administration of test compounds.

[5] = Experiment 4-1 Acute toxicity; details: rat, in vivo; oral, male rats, 5 week age, 7 days
Text: Wistar male rats (5 week age, weighing 105-135 g) were used. The compounds of Example Nos. 2, 3 and 7 were each orally administered to the animals in the form of a suspension in 0.5% methyl cellulose solution.

[6] = Experiment 4-2 Acute toxicity, rats; details: rat, in vivo, po, 4 week age, 7 days
Text: Wistar male and female rats (4 week age) and ddy male and female mice (4 week age) were used. The compounds of Example Nos. 82 and 83 were each orally administered to […].

[7] = 3 μg/heart, read-out: Inhibitory rate of systole
[8] = 3 μg/heart, read-out: Reducing rate of heart pulse
[9] = 30 mM KCl contraction, maximum relaxation by papaverine = 100%
[10] = 1 μg/heart, read-out: Inhibitory rate of systole
[11] = 1 μg/heart, read-out: Reducing rate of heart pulse

SMILES: COC(=O)C1=C(C)NC(C)=C(C(=O)OC)C1c1ccccc1[N+](=O)[O-] [Compound A, dimethyl 1,4-dihydro-2,6-dimethyl-4-(2-nitophenyl)3,5-pyridinedicarboxylate, reference compound]
EC50 (isolated aorta): 41 nM | Recovering time ([1]; 10 mg/kg oral): 4.0 h | Time for recovering 1/2 of max. hypotension ([1]; 10 mg/kg oral): 1.5 h | Time until reaching to max. hypotension ([1]; 10 mg/kg oral): 15 min | Maximum hypotension ([1]; 10 mg/kg oral): 49 mmHg | Coronary perfusion Duration (isolated heart [2]; 3 μg/heart): < 10 min | activation at 3 µg/heart (isolated heart [2]; 3 μg/heart): 40% | inhibition at 3 µg/heart (isolated heart [2]; [7]): 35% | inhibition at 3 µg/heart (isolated heart [2]; [8]): 10% | activation at 3 µg/heart (isolated heart [3]): 40% | inhibition at 3 µg/heart, 3 µg/heart (isolated heart [3]): 35% | inhibition at 3 µg/heart (isolated heart [3]): 10% | Maximum hypotension ([4]; 1 mg/kg oral): 55 mmHg | Recovering time ([4]; 1 mg/kg oral): 3.0 to 4.0 h | Time for recovering 1/2 of max. hypotension ([4]; 1 mg/kg oral): 2.0 h | Time until reaching to max. hypotension ([4]; 1 mg/kg oral): 30 min

EC50 (isolated aorta; [9]): 19 nM
SMILES: COC(=O)C1=C(C)NC(C)=C(C(=O)OCCN(C)Cc2ccccc2)C1c1cccc([N+](=O)[O-])c1.Cl (centres unmarked) [Compound B, methyl, N-benzyl-N-methylaminoethyl 1,4-dihydro-2,6-dimethyl-4-(3-nitrophenyl)-3,5-pyridinedicarboxylate hydrochloride, reference compound]
Recovering time ([1]; 10 mg/kg oral): > 5.0 h | Time for recovering 1/2 of max. hypotension ([1]; 10 mg/kg oral): > 5.0 h | Time until reaching to max. hypotension ([1]; 10 mg/kg oral): 15 min | Maximum hypotension ([1]; 10 mg/kg oral): 57 mmHg | Coronary perfusion Duration (isolated heart [2]; 3 μg/heart): < 10 min | activation at 3 µg/heart (isolated heart [2]; 3 μg/heart): 15% | inhibition at 3 µg/heart (isolated heart [2]; [7]): 10% | inhibition at 3 µg/heart (isolated heart [2]; [8]): 5% | activation at 3 µg/heart (isolated heart [3]): 15% | inhibition at 3 µg/heart, 3 µg/heart (isolated heart [3]): 10% | inhibition at 3 µg/heart (isolated heart [3]): 5% | Maximum hypotension ([4]; 3 mg/kg oral): 27 mmHg | Recovering time ([4]; 3 mg/kg oral): 3.0 to 4.0 h | Time for recovering 1/2 of max. hypotension ([4]; 3 mg/kg oral): 2.0 h | Time until reaching to max. hypotension ([4]; 3 mg/kg oral): 30 min

SMILES: CCCCCCCCOC(=O)C1=C(C)NC(C)=C(C(=O)NC(C)C)C1c1ccccc1[N+](=O)[O-] (centres unmarked) [Example 2, n-octyl 2,6-dimethyl-3-isopropylaminocarbonyl-4-(o-nitrophenyl)-1,4-dihydropyridine-5-carboxylate]
EC50 (isolated aorta; [9]): 300 nM | relaxing / vasodilating activity on isolated aorta (in words) (isolated aorta): somewhat weak vasodilating activity | Recovering time ([1]; 3 mg/kg oral): > 5.0 h | Time for recovering 1/2 of max. hypotension ([1]; 3 mg/kg oral): 5.0 h | Time until reaching to max. hypotension ([1]; 3 mg/kg oral): 30 min | Maximum hypotension ([1]; 3 mg/kg oral): 55 mmHg | hypotensive activity (in words) [1]: the same or more potent activity with longer duration; also recorded: potent hypotensive activity | activation at 3 µg/heart (isolated heart [3]): 17% | inhibition at 3 µg/heart, 3 µg/heart (isolated heart [3]): 50% | inhibition at 3 µg/heart (isolated heart [3]): 25% | inhibitions on the heart pulse and contactility (in words) (isolated heart [3]; Table 6): moderate inhibitions on the heart pulse and contactility | LD50 at 168 h [5]: 10 to 100 mg/kg

SMILES: CCCCCCCCCOC(=O)C1=C(C)NC(C)=C(C(=O)NC(C)C)C1c1ccccc1[N+](=O)[O-] (centres unmarked) [Example 3, n-nonyl 2,6-dimethyl-3-isopropylaminocarbonyl-4-(o-nitrophenyl)-1,4-dihydropyridine-5-carboxylate]
EC50 (isolated aorta; [9]): 180 nM | Recovering time ([1]; 3 mg/kg oral): > 5.0 h | Time for recovering 1/2 of max. hypotension ([1]; 3 mg/kg oral): > 5.0 h | Time until reaching to max. hypotension ([1]; 3 mg/kg oral): 30 min | Maximum hypotension ([1]; 3 mg/kg oral): 60 mmHg | Recovering time ([1]; 10 mg/kg oral): > 5.0 h | Time for recovering 1/2 of max. hypotension ([1]; 10 mg/kg oral): > 5.0 h | Time until reaching to max. hypotension ([1]; 10 mg/kg oral): 30 min | Maximum hypotension ([1]; 10 mg/kg oral): 91 mmHg | activation at 3 µg/heart (isolated heart [3]): 40% | inhibition at 3 µg/heart, 3 µg/heart (isolated heart [3]): 55% | inhibition at 3 µg/heart (isolated heart [3]): 20% | LD50 at 168 h [5]: 500 to 1000 mg/kg

SMILES: CCCCCCOC(=O)C1=C(C)NC(C)=C(C(=O)NC(C)C)C1c1ccccc1[N+](=O)[O-] (centres unmarked) [Example 7, n-hexyl 2,6-dimethyl-3-isopropylaminocarbonyl-4-(o-nitrophenyl)-1,4-dihydropyridine-5-carboxylate]
EC50 (isolated aorta; [9]): 130 nM | relaxing / vasodilating activity on isolated aorta (in words) (isolated aorta): somewhat weak vasodilating activity | Recovering time ([1]; 10 mg/kg oral): > 5.0 h | Time for recovering 1/2 of max. hypotension ([1]; 10 mg/kg oral): 5.0 h | Time until reaching to max. hypotension ([1]; 10 mg/kg oral): 30 min | Maximum hypotension ([1]; 10 mg/kg oral): 45 mmHg | hypotensive activity (in words) [1]: the same or more potent activity with longer duration; also recorded: potent hypotensive activity | activation at 3 µg/heart (isolated heart [3]): 45% | inhibition at 3 µg/heart, 3 µg/heart (isolated heart [3]): 30% | inhibition at 3 µg/heart (isolated heart [3]): 25% | inhibitions on the heart pulse and contactility (in words) (isolated heart [3]; Table 6): moderate inhibitions on the heart pulse and contactility | coronary vasodilating activity (in words) (isolated heart [3]; Table 6, comparison with nifedipine and nicardipine hydrochloride, etc.): the same or more potent coronary vasodilating activity with longer duration | LD50 at 168 h [5]: > 1000 mg/kg

SMILES: C#CCNC(=O)C1=C(C)NC(C)=C(C(=O)OCCCCCCCC)C1c1ccccc1[N+](=O)[O-] (centres unmarked) [Example 78, n-octyl 2,6-dimethyl-3-propargylaminocarbonyl-4-(o-nitrophenyl)-1,4-dihydropyridine-5-carboxylate]
Coronary perfusion Duration (isolated heart [2]; 1 μg/heart): 60 min | activation at 1 µg/heart (isolated heart [2]; 1 μg/heart): 55% | inhibition at 1 µg/heart (isolated heart [2]; [10]): 35% | inhibition at 1 µg/heart (isolated heart [2]; [11]): 10% | Maximum hypotension ([4]; 1 mg/kg oral): 33 mmHg | Recovering time ([4]; 1 mg/kg oral): 5.0 h | Time for recovering 1/2 of max. hypotension ([4]; 1 mg/kg oral): 3.0 h | Time until reaching to max. hypotension ([4]; 1 mg/kg oral): 60 min | hypotensive activity (in words) [4]: the same or more potent hypotensive activity with longer duration

SMILES: C#CCNC(=O)C1=C(C)NC(C)=C(C(=O)OCCCCCCCCC)C1c1ccccc1[N+](=O)[O-] (centres unmarked) [Example 79, n-nonyl 2,6-dimethyl-3-propargylaminocarbonyl-4-(o-nitrophenyl)-1,4-dihydropyridine-5-carboxylate]
Coronary perfusion Duration (isolated heart [2]; 1 μg/heart): 60 min | activation at 1 µg/heart (isolated heart [2]; 1 μg/heart): 50% | inhibition at 1 µg/heart (isolated heart [2]; [10]): 40% | inhibition at 1 µg/heart (isolated heart [2]; [11]): 30% | Maximum hypotension ([4]; 1 mg/kg oral): 45 mmHg | Recovering time ([4]; 1 mg/kg oral): 5.0 h | Time for recovering 1/2 of max. hypotension ([4]; 1 mg/kg oral): 3.0 h | Time until reaching to max. hypotension ([4]; 1 mg/kg oral): 60 min | hypotensive activity (in words) [4]: the same or more potent hypotensive activity with longer duration

SMILES: CCCCCCCCCOC(=O)C1=C(C)NC(C)=C(C(=O)NC2CC2)C1c1ccccc1[N+](=O)[O-] (centres unmarked) [Example 83, n-nonyl 2,6-dimethyl-3-cyclopropylaminocarbonyl-4-(o-nitrophenyl)-1,4-dihydropyridine-5-carboxylate]
EC50 (isolated aorta): 290 nM | relaxing / vasodilating activity on isolated aorta (in words) (isolated aorta): somewhat weak vasodilating activity | LD50 at 168 h ([6]; female rats): ≤ 10 mg/kg | LD50 at 168 h ([6]; male rats): 100 to 500 mg/kg | Coronary perfusion Duration (isolated heart [2]; 3 μg/heart): > 120 min | activation at 3 µg/heart (isolated heart [2]): 42% | inhibition at 3 µg/heart (isolated heart [2]; read-out: Inhibitory rate of systole): 50% | inhibition at 3 µg/heart (isolated heart [2]; read-out: Reducing rate of heart pulse): 20% | Maximum hypotension ([4]; 1 mg/kg oral): 61 mmHg | Recovering time ([4]; 1 mg/kg oral): > 8.0 h | Time for recovering 1/2 of max. hypotension ([4]; 1 mg/kg oral): > 8.0 h | Time until reaching to max. hypotension ([4]; 1 mg/kg oral): 180 min | hypotensive activity (in words) [4]: the same or more potent hypotensive activity with longer duration; also recorded: potent hypotensive activity
